{
  "source": "paper PMC6202380",
  "about": "(2018)",
  "key": {"[1]": {"test_system": "F-CEB25^L111-T (DNA, G4) AAGGGTGGGTGGGTGGGT", "assay": "FRET melting", "settings": "1 mM K+, 99 mM Li+; 10 mM LiAsO2Me2, pH 7.2 (K-1); 0.2 µM DNA, 1 µM ligand"}, "[2]": {"test_system": "hras-1 (DNA, G4) TCGGGTTGCGGGCGCAGGGCACGGGCG", "assay": "CD spectroscopy", "settings": "100 mM K+; K-100 buffer, pH 7.2, 20 °C; 5 µM DNA, 10 µM ligand"}, "[3]": {"test_system": "22AG (DNA, G4) AGGGTTAGGGTTAGGGTTAGGG", "assay": "CD spectroscopy", "settings": "100 mM K+; K-100 buffer, pH 7.2, 20 °C; 5 µM DNA, 10 µM ligand"}, "[4]": {"test_system": "22AG (DNA, G4) AGGGTTAGGGTTAGGGTTAGGG", "assay": "fluorimetric titration", "settings": "100 mM K+; K-100 buffer, pH 7.2; 2 µM ligand; binding constant could not be determined"}, "[5]": {"test_system": "^BrU-22AG (DNA, G4, 5-bromouracil (replacing T) at 5, 6, 11, 12, 17, 18) AGGGTTAGGGTTAGGGTTAGGG", "assay": "PAGE of UVA photoadduct", "settings": "100 mM K+; covalent; K-100 buffer, pH 7.2; 5 µM DNA, 25 µM ligand, 365 nm"}, "[6]": {"test_system": "ds26 (DNA, duplex) CAATCGGATCGAATTCGATCCGATTG", "assay": "fluorimetric titration, independent-site model", "settings": "100 mM K+; 10 mM LiAsO2Me2, pH 7.2 (K-100); 2 µM ligand"}, "[7]": {"test_system": "CEB25^WT (DNA, G4) AAGGGTGGGTGTAAGTGTGGGTGGGT", "assay": "fluorimetric titration, independent-site model", "settings": "100 mM K+; K-100 buffer, pH 7.2; 2 µM ligand; Table 2 prints 0.54, text gives 0.54 to CEB25^L111"}, "[8]": {"test_system": "22CTA (DNA, G4) AGGGCTAGGGCTAGGGCTAGGG", "assay": "fluorimetric titration, independent-site model", "settings": "100 mM K+; 10 mM LiAsO2Me2, pH 7.2 (K-100); 2 µM ligand"}, "[9]": {"test_system": "22AG (DNA, G4) AGGGTTAGGGTTAGGGTTAGGG", "assay": "fluorimetric titration, independent-site model", "settings": "2 µM ligand"}, "[10]": {"test_system": "CEB25^L111 (DNA, G4) AAGGGTGGGTGGGTGGGT", "assay": "fluorimetric titration, independent-site model", "settings": "100 mM K+; K-100 buffer, pH 7.2; 2 µM ligand; value from text, Table 2 prints 1.5 for this oligonucleotide"}, "[11]": {"test_system": "hras-1 (DNA, G4) TCGGGTTGCGGGCGCAGGGCACGGGCG", "assay": "fluorimetric titration, independent-site model", "settings": "100 mM K+; 10 mM LiAsO2Me2, pH 7.2 (K-100); 2 µM ligand"}, "[12]": {"test_system": "bcl2Mid (DNA, G4) GGGCGCGGGAGGAATTGGGCGGG", "assay": "fluorimetric titration, independent-site model", "settings": "100 mM K+; 10 mM LiAsO2Me2, pH 7.2 (K-100); 2 µM ligand"}, "[13]": {"test_system": "Pu24T (DNA, G4) TGAGGGTGGTGAGGGTGGGGAAGG", "assay": "fluorimetric titration, independent-site model", "settings": "100 mM K+; 10 mM LiAsO2Me2, pH 7.2 (K-100); 2 µM ligand"}},
  "data": [
    {"smiles": "C[n+]1cc(NC(=O)c2ccc3ccc4ccc(C(=O)Nc5cc6ccccc6[n+](C)c5)nc4c3n2)cc2ccccc21", "values": [
      {"measurement": "ΔT½", "setting": "[1]", "value": 13, "unit": "°C"}
    ]},
    {"smiles": "NCCN(CCN)CCNCCCCc1ccc2ccc3cccc4ccc1c2c34", "values": [
      {"measurement": "binding", "setting": "[2]", "value": "yes"},
      {"measurement": "binding", "setting": "[3]", "value": "yes"}
    ]},
    {"smiles": "NCCCN1CCNCc2ccc3cc(ccc3c2)CNCCOCCNCc2ccc3cc(ccc3c2)CNCC1", "values": [
      {"measurement": "binding", "setting": "[2]", "value": "yes"},
      {"measurement": "binding", "setting": "[3]", "value": "yes"}
    ]},
    {"smiles": "c1cc2ccc3ccc(CCCCNCCN4CCNCc5ccc6cc(ccc6c5)CNCCOCCNCc5ccc6cc(ccc6c5)CNCC4)c4ccc(c1)c2c34", "values": [
      {"measurement": "binding", "setting": "[4]", "value": "yes"},
      {"measurement": "binding", "setting": "[5]", "value": "yes"},
      {"measurement": "binding", "setting": "[2]", "value": "yes"}
    ]},
    {"smiles": "c1cc2ccc3ccc(CCCCNCCN4CCNCc5ccc6cc(ccc6c5)CNCCN(CCNCCCCc5ccc6ccc7cccc8ccc5c6c78)CCNCc5ccc6cc(ccc6c5)CNCC4)c4ccc(c1)c2c34", "values": [
      {"measurement": "Ka", "setting": "[6]", "value": 480000, "unit": "M⁻¹"},
      {"measurement": "ΔT½", "setting": "[1]", "value": 11, "unit": "°C"},
      {"measurement": "binding", "setting": "[5]", "value": "yes"},
      {"measurement": "Ka", "setting": "[7]", "value": "0.54 10^6 M^-1"},
      {"measurement": "Ka", "setting": "[8]", "value": "3.9e+06", "unit": "M⁻¹"},
      {"measurement": "Ka", "setting": "[9]; 100 mM K+, 10 mM LiAsO2Me2, pH 7.2 (K-100)", "value": "1.8e+06", "unit": "M⁻¹"},
      {"measurement": "Ka", "setting": "[9]; 100 mM Na+, 10 mM LiAsO2Me2, pH 7.2 (Na-100)", "value": "1.4e+06", "unit": "M⁻¹"},
      {"measurement": "Ka", "setting": "[10]", "value": 540000, "unit": "M⁻¹"},
      {"measurement": "Ka", "setting": "[11]", "value": "1.1e+06", "unit": "M⁻¹"},
      {"measurement": "Ka", "setting": "[12]", "value": "1.8e+06", "unit": "M⁻¹"},
      {"measurement": "Ka", "setting": "[13]", "value": "1.5e+06", "unit": "M⁻¹"}
    ]}
  ]
}
